According to ChEMBL document CHEMBL4138307, “Click-Addressable Cassette for Photoaffinity Labeling” (ACS Med Chem Lett, 2018):
Active and inactive are the calls of the source. No cut-off for these calls is given here.

Legend:
[1] = target: Carbonic anhydrase 9 (Homo sapiens) (UniProt Q16790); experiment: Binding affinity to recombinant carbonic anhydrase 9 (unknown origin) at 5 to 10 uM preincubated for 2 hrs in dark followed by irradiation with LED UV flashlight at 365 nm for 30 mins in presence of 50 fold excess of 4-(2-((4-(4-(benzyl(prop-2-yn-1-yl)amino)piperidin-1-yl)-6-chloro-1,3,5-triazin-2-yl)amino)ethyl)benzenesulfonamide by SDS-PAGE based fluorescence imaging
[2] = target: Carbonic anhydrase 9 (Homo sapiens) (UniProt Q16790); experiment: Binding affinity to carbonic anhydrase 9 in human MDA-MB-231 cell lysate at 5 uM preincubated for 3 hrs in dark followed by irradiation with LED UV flashlight at 365 nm for 30 mins in presence of 4-(2-((4-(4-(benzyl(prop-2-yn-1-yl)amino)piperidin-1-yl)-6-chloro-1,3,5-triazin-2-yl)amino)ethyl)benzenesulfonamide by biotin-azide/neutravidin agarose gel based Western blot analysis
[3] = target: Carbonic anhydrase 9 (Homo sapiens) (UniProt Q16790); experiment: Binding affinity to recombinant carbonic anhydrase 9 (unknown origin) at 5 to 10 uM preincubated for 2 hrs in dark followed by irradiation with LED UV flashlight at 365 nm for 30 mins in presence of coomassie brilliant blue G250 staining by SDS-PAGE based fluorescence imaging
[4] = target: Carbonic anhydrase 9 (Homo sapiens) (UniProt Q16790); experiment: Binding affinity to recombinant carbonic anhydrase 9 (unknown origin) at 5 to 10 uM preincubated for 2 hrs in dark followed by irradiation with LED UV flashlight at 365 nm for 30 mins in presence of azide fluor 488 staining by SDS-PAGE based fluorescence imaging
[5] = target: Carbonic anhydrase 9 (Homo sapiens) (UniProt Q16790); experiment: Binding affinity to carbonic anhydrase 9 in human MDA-MB-231 cell lysate at 5 uM preincubated for 3 hrs in dark followed by irradiation with LED UV flashlight at 365 nm for 30 mins by biotin-azide/neutravidin agarose gel based Western blot analysis
[6] = target: NT-3 growth factor receptor (Homo sapiens) (UniProt Q16288); experiment: Binding affinity to recombinant TrkC (unknown origin) at 10 to 25 uM incubated for 1 hr in dark in presence of azide fluor 488 staining by SDS-PAGE based fluorescence imaging
[7] = target: NT-3 growth factor receptor (Homo sapiens) (UniProt Q16288); experiment: Binding affinity to recombinant TrkC (unknown origin) at 10 to 25 uM preincubated for 1 hr in dark followed by irradiation with LED UV flashlight at 365 nm for 30 mins in presence of 80 fold excess of (2S,2'S)-1,1'-((6-(4-(benzyl(prop-2-yn-1-yl)amino)piperidin-1-yl)-1,3,5-triazine-2,4-diyl)bis(piperazine-4,1-diyl))bis(2-(4-((1S,2S)-1-amino-2-methylbutyl)-1H-1,2,3-triazol-1-yl)-3-(4-hydroxyphenyl)propan-1-one) by SDS-PAGE based fluorescence imaging
[8] = target: NT-3 growth factor receptor (Homo sapiens) (UniProt Q16288); experiment: Binding affinity to TrkC (unknown origin) expressed in mouse NIH3T3 cell lysate at 10 uM preincubated for 3 hrs in dark followed by irradiation with LED UV flashlight at 365 nm for 30 mins by biotin-azide/neutravidin agarose gel based Western blot analysis
[9] = target: NT-3 growth factor receptor (Homo sapiens) (UniProt Q16288); experiment: Binding affinity to recombinant TrkC (unknown origin) at 10 to 25 uM preincubated for 1 hr in dark followed by irradiation with LED UV flashlight at 365 nm for 30 mins in presence of azide fluor 488 staining by SDS-PAGE based fluorescence imaging

Sequence of NT-3 growth factor receptor (Homo sapiens) (Q16288 32-839 limits assumed): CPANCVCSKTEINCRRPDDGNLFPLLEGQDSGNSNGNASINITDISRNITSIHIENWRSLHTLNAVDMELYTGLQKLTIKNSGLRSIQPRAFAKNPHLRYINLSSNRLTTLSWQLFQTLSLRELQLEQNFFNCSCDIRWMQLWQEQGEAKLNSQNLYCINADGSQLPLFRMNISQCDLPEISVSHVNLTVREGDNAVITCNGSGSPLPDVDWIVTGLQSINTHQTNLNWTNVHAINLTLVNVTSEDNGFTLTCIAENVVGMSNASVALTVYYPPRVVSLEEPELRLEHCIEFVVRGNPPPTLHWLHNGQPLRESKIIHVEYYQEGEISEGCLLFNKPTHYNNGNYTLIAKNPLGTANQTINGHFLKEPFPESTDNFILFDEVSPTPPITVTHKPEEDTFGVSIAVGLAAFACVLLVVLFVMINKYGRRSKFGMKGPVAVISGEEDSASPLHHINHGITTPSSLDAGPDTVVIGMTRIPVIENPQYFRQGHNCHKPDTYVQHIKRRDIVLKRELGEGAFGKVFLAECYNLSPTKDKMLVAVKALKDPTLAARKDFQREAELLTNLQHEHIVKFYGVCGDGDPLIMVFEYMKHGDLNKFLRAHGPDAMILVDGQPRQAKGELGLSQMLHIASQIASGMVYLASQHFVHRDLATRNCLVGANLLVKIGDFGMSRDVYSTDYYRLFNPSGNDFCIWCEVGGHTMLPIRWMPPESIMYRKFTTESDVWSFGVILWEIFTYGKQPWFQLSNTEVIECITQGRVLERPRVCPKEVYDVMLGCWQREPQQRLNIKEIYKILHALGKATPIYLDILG

Activity [1]	Activity [2]	Activity [3]	Activity [4]	Activity [5]	Activity [6]	Activity [7]	Activity [8]	Activity [9]	SMILES
inactive	inactive	Active	Active	Active					C#CCN(Cc1ccc(C2(C(F)(F)F)N=N2)cc1)C1CCN(c2nc(Cl)nc(NCCc3ccc(S(N)(=O)=O)cc3)n2)CC1
					inactive	inactive	Active	Active	C#CCN(Cc1ccc(C2(C(F)(F)F)N=N2)cc1)C1CCN(c2nc(N3CCN(C(=O)[C@H](Cc4ccc(O)cc4)n4cc([C@@H](N)[C@@H](C)CC)nn4)CC3)nc(N3CCN(C(=O)[C@H](Cc4ccc(O)cc4)n4cc([C@@H](N)[C@@H](C)CC)nn4)CC3)n2)CC1
